Our source for the GI50 and TGI values is PubChem BioAssay (NCI).

Test systems include UACC-62 melanoma; SW-620 colon; HL-60(TB) leukemia; SK-MEL-28 melanoma; OVCAR-4 ovarian; OVCAR-3 ovarian; MALME-3M melanoma; SN12C renal; K-562 leukemia; MOLT-4 leukemia.
Holding throughout (assay): NCI anticancer screen, dose series, 48 h

Each structure is given as a SMILES string.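 Assay format: 96-well plates, 48-hour exposure. Here, GI50 denotes the concentration required for 50% inhibition of growth. TGI is the concentration that stops growth completely.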

With `CCN1CCC(CC(=O)Nc2n[nH]c3nnc(-c4cccc(F)c4F)cc23)CC1`, the GI50 in the test with UACC-62 melanoma is more than 25 µM; in the test with SW-620 colon it was more than 25 µM; in the test on HL-60(TB) leukemia it was more than 25 µM; in the test on SK-MEL-28 melanoma it was more than 25 µM; in the test on OVCAR-4 ovarian it was more than 25 µM; with OVCAR-3 ovarian, 3.65 µM. The GI50 with MALME-3M melanoma, in the test with SN12C renal, in the test with K-562 leukemia and with MOLT-4 leukemia was more than 25 µM throughout. The TGI with UACC-62 melanoma, in the test on SW-620 colon, in the test with HL-60(TB) leukemia, in the test with SK-MEL-28 melanoma, with OVCAR-4 ovarian and with OVCAR-3 ovarian was more than 25 µM in each case. Also, the TGI in the test on MALME-3M melanoma, with SN12C renal, in the test with K-562 leukemia and in the test on MOLT-4 leukemia was more than 25 µM throughout.
For the compound `C/C(CCC(=O)O)=N/Nc1ccc([N+](=O)[O-])cc1`, the GI50 in the test on UACC-62 melanoma was 0.492 µM; in the test on SW-620 colon, 2.6 µM; with HL-60(TB) leukemia, 1.51 µM; in the test on SK-MEL-28 melanoma it was more than 100 µM; with OVCAR-4 ovarian it was more than 100 µM; with OVCAR-3 ovarian, 17.4 µM. The GI50 was 65 µM in the test with MALME-3M melanoma, more than 100 µM in the test on SN12C renal, 0.563 µM in the test with K-562 leukemia and 4.27 µM in the test with MOLT-4 leukemia. For the same compound, the TGI in the test with UACC-62 melanoma is 62.3 µM; in the test on SW-620 colon it was more than 100 µM; with HL-60(TB) leukemia, more than 100 µM; in the test on SK-MEL-28 melanoma it was more than 100 µM; with OVCAR-4 ovarian, more than 100 µM; in the test on OVCAR-3 ovarian, more than 100 µM. Further, the TGI in the test with MALME-3M melanoma, in the test on SN12C renal, in the test on K-562 leukemia and with MOLT-4 leukemia was more than 100 µM throughout.
Take `O=C(CN1CCN(Cc2ccccc2Cl)CC1)NC1CC(=O)c2c(Br)sc(Br)c21` (stereo not drawn): the GI50 was 16.3 µM with UACC-62 melanoma; 19.8 µM in the test on SW-620 colon; 23.3 µM with HL-60(TB) leukemia; 18.1 µM in the test with SK-MEL-28 melanoma; 18.9 µM with OVCAR-4 ovarian; 20.8 µM in the test with OVCAR-3 ovarian. Also, the GI50 is 21.6 µM in the test on MALME-3M melanoma, 19.1 µM in the test on SN12C renal, 29.6 µM with K-562 leukemia and 27.1 µM in the test on MOLT-4 leukemia. The TGI is 31 µM with UACC-62 melanoma; 36.6 µM in the test on SW-620 colon; 57.4 µM in the test with HL-60(TB) leukemia; 32.2 µM in the test with SK-MEL-28 melanoma; 34.4 µM with OVCAR-4 ovarian; 43.4 µM in the test with OVCAR-3 ovarian. The TGI is 43.8 µM with MALME-3M melanoma, 35.9 µM with SN12C renal, more than 100 µM with K-562 leukemia and 85.3 µM with MOLT-4 leukemia.
On to `Cc1ccccc1C1=C(c2cn(C)c3ccccc23)C(=O)NC1=O`, for which the GI50 with UACC-62 melanoma was more than 20.5 µM; in the test with SW-620 colon, 12.1 µM; with HL-60(TB) leukemia it was 10.8 µM; in the test with SK-MEL-28 melanoma, more than 25 µM; in the test on OVCAR-4 ovarian, more than 21.1 µM; in the test with OVCAR-3 ovarian, 10.8 µM. Besides, the GI50 was 23.9 µM in the test with MALME-3M melanoma, more than 22.7 µM in the test on SN12C renal, 13.6 µM with K-562 leukemia and 10.8 µM in the test on MOLT-4 leukemia. For the same compound, the TGI in the test with UACC-62 melanoma, in the test on SW-620 colon, in the test with HL-60(TB) leukemia, in the test on SK-MEL-28 melanoma, in the test on OVCAR-4 ovarian and in the test with OVCAR-3 ovarian was more than 25 µM in each case. Also, the TGI in the test with MALME-3M melanoma, with SN12C renal, in the test on K-562 leukemia and in the test on MOLT-4 leukemia was more than 25 µM in each case.
With `CN(C)C1CCN(Cc2ccc(NC(=O)c3cncc(C#Cc4cnc(N)c5ncccc45)c3)cc2C(F)(F)F)CC1`, the GI50 is 6.09 µM in the test on UACC-62 melanoma; 1.32 µM in the test on SW-620 colon; 9.8 µM in the test with HL-60(TB) leukemia; 0.912 µM with SK-MEL-28 melanoma; 1.9 µM in the test with OVCAR-4 ovarian; 9.3 µM in the test on OVCAR-3 ovarian. Moreover, the GI50 with MALME-3M melanoma is 0.828 µM; in the test on SN12C renal, 8.94 µM; in the test on K-562 leukemia, 0.0158 µM; in the test on MOLT-4 leukemia, 1.55 µM. In addition, the TGI worked out at 13.8 µM in the test on UACC-62 melanoma; 4.03 µM in the test with SW-620 colon; 24.4 µM in the test on HL-60(TB) leukemia; 1.74 µM in the test with SK-MEL-28 melanoma; 9.24 µM with OVCAR-4 ovarian; 17.6 µM in the test on OVCAR-3 ovarian. The TGI in the test on MALME-3M melanoma was 1.65 µM; with SN12C renal, 18.1 µM; in the test on K-562 leukemia it was 1.02 µM; with MOLT-4 leukemia it was 5.57 µM.
On to `C/C(=N\NC(=S)N1CCN(c2ccccn2)CC1)c1ccccn1`, for which the GI50 in the test with UACC-62 melanoma was less than 0.0114 µM; in the test with HL-60(TB) leukemia it was 0.0416 µM; in the test on OVCAR-4 ovarian it was 1.08 µM; in the test on MALME-3M melanoma, 0.406 µM. In addition, the TGI in the test on SW-620 colon amounted to 16.2 µM; in the test with HL-60(TB) leukemia it was 0.0104 µM; in the test with SK-MEL-28 melanoma, 19.3 µM; with OVCAR-4 ovarian it was 12.6 µM; in the test on OVCAR-3 ovarian, 14.2 µM; with MALME-3M melanoma, 12.8 µM. Besides, the TGI in the test on SN12C renal turned out to be 18.5 µM; in the test with K-562 leukemia, 0.0341 µM; in the test with MOLT-4 leukemia, 2.66 µM.
Turning to `COc1cc(-c2cc3ncccc3c3nc(OCCN(C)C)c4cccnc4c23)cc(OC)c1OC`, the GI50 is 0.42 µM with UACC-62 melanoma; 0.324 µM with SW-620 colon; 1.25 µM in the test on HL-60(TB) leukemia; 0.639 µM in the test with SK-MEL-28 melanoma; 0.418 µM with OVCAR-4 ovarian; 0.64 µM in the test with OVCAR-3 ovarian. The GI50 in the test with MALME-3M melanoma is 0.431 µM; in the test with SN12C renal, 0.581 µM; in the test on K-562 leukemia, 0.339 µM; in the test with MOLT-4 leukemia, 0.314 µM. In addition, the TGI is 2.45 µM in the test with UACC-62 melanoma; 15.2 µM with SW-620 colon; 4.73 µM in the test on HL-60(TB) leukemia; 2.42 µM with SK-MEL-28 melanoma; 2.52 µM in the test with OVCAR-4 ovarian; 3.09 µM with OVCAR-3 ovarian. Also, the TGI in the test with MALME-3M melanoma is 2.5 µM; in the test on SN12C renal, 3.09 µM; with K-562 leukemia, 4.63 µM; in the test on MOLT-4 leukemia, 2.71 µM.
With `COC(=O)[C@H](CC(C)C)NC(=O)[C@H](Cc1ccccc1)N1CC2C=CC1C2` (stereo partly drawn), the TGI in the test with UACC-62 melanoma, with SW-620 colon, in the test on HL-60(TB) leukemia, in the test with SK-MEL-28 melanoma, in the test with OVCAR-4 ovarian and in the test on OVCAR-3 ovarian was more than 100 µM in each case. Further, the TGI in the test on MALME-3M melanoma, in the test on SN12C renal, in the test on K-562 leukemia and with MOLT-4 leukemia was more than 100 µM each time.
With `Cc1cc(=O)[nH]c(CNC(=O)c2ccc3ccccc3c2)n1`, the TGI with UACC-62 melanoma, with SW-620 colon, in the test with HL-60(TB) leukemia, in the test with SK-MEL-28 melanoma, in the test on OVCAR-4 ovarian and in the test on OVCAR-3 ovarian was more than 100 µM throughout. The TGI in the test on MALME-3M melanoma, in the test with SN12C renal, with K-562 leukemia and in the test with MOLT-4 leukemia was more than 100 µM throughout.
For `CNC(=O)c1nn(C)c2c1C(C)(C)Cc1cnc(Nc3cccc(N4CCN(C)CC4)c3)nc1-2`, the GI50 was 0.369 µM with UACC-62 melanoma; 0.287 µM in the test on SW-620 colon; 0.596 µM with HL-60(TB) leukemia; 1.32 µM in the test with SK-MEL-28 melanoma; 0.409 µM in the test with OVCAR-4 ovarian; 0.505 µM with OVCAR-3 ovarian. The GI50 was 0.223 µM with MALME-3M melanoma, 0.323 µM in the test on SN12C renal, 0.443 µM in the test on K-562 leukemia and 0.236 µM in the test with MOLT-4 leukemia. Besides, the TGI in the test with UACC-62 melanoma stood at 11.6 µM; in the test with SW-620 colon, 22.4 µM; in the test on HL-60(TB) leukemia it was 6.64 µM; in the test on SK-MEL-28 melanoma it was 13.1 µM; in the test with OVCAR-4 ovarian it was 44.3 µM; in the test with OVCAR-3 ovarian, 13.4 µM. Further, the TGI in the test on MALME-3M melanoma is 5.59 µM; in the test on SN12C renal, 31 µM; with K-562 leukemia, more than 50 µM; in the test with MOLT-4 leukemia, 10.6 µM.
For `CNS(=O)(=O)OCC1OC(n2cnc3cncnc32)C(O)C1O` (stereo not drawn), the GI50 with UACC-62 melanoma, in the test on SW-620 colon, in the test with HL-60(TB) leukemia, in the test on SK-MEL-28 melanoma, with OVCAR-4 ovarian and in the test with OVCAR-3 ovarian was more than 100 µM throughout. For the same compound, the GI50 in the test with MALME-3M melanoma, with SN12C renal, with K-562 leukemia and with MOLT-4 leukemia was more than 100 µM in each case. Moreover, the TGI with UACC-62 melanoma, in the test on SW-620 colon, in the test on HL-60(TB) leukemia, in the test with SK-MEL-28 melanoma, with OVCAR-4 ovarian and in the test on OVCAR-3 ovarian was more than 100 µM in each case. In addition, the TGI in the test on MALME-3M melanoma, in the test with SN12C renal, in the test with K-562 leukemia and with MOLT-4 leukemia was more than 100 µM each time.
